Measured values: ChEMBL document CHEMBL3585323, “Effect of intercalator substituent and nucleotide sequence on the stability of DNA- and RNA-naphthalimide complexes” (Bioorg Med Chem, 2015)
The source made the active and inactive calls. The calls are words filed in the database; no cut-off is given here.

Assays:
[1] = Binding affinity to 5'-d(ATATATATATAT)2-3' DNA assessed as change in melting temperature at 1:1 DNA to compound molar ratio by spectrophotometric analysis
Nucleic Acid [2] = test: Induction of DNA intercalation using 5'-d(GTCCGTCGGAC)-3'/5'-(GTCCGACGGAC)-3' at 250 uM by UV-vis spectrophotometric analysis; assay type: nucleic-acid assay
Nucleic Acid [3] = test: Induction of DNA intercalation using 5'-r(GCGCGCGC)2-3' at 250 uM by UV-vis spectrophotometric analysis; assay type: nucleic-acid assay
Nucleic Acid [4] = test: Induction of DNA intercalation using 5'-d(ATATATATATAT)2-3' at 250 uM by UV-vis spectrophotometric analysis; assay type: nucleic-acid assay
[5] = Binding affinity to 5'-r(GUCCGCGGAC)2-3' DNA assessed as change in melting temperature at 1:1 DNA to compound molar ratio by spectrophotometric analysis
Nucleic Acid [6] = test: Induction of DNA intercalation using 5'-d(ATATATGATATA)-3'/5'-(TATATCATATAT)-3' at 250 uM by UV-vis spectrophotometric analysis; assay type: nucleic-acid assay
[7] = Binding affinity to 5'-d(ATATATGATATA)-3'/5'-(TATATCATATAT)-3' DNA assessed as change in melting temperature at 1:1 DNA to compound molar ratio by spectrophotometric analysis
[8] = Binding affinity to 5'-d(GCGCGCGC)2-3' DNA assessed as change in melting temperature at 1:1 DNA to compound molar ratio by spectrophotometric analysis
[9] = Binding affinity to 5'-d(GTCCGCGGAC)2-3' DNA assessed as change in melting temperature at 1:1 DNA to compound molar ratio by spectrophotometric analysis
[10] = Binding affinity to 5'-d(GTAATATTAC)2-3' DNA assessed as change in melting temperature at 1:1 DNA to compound molar ratio by spectrophotometric analysis
Nucleic Acid [11] = test: Induction of DNA intercalation using 5'-d(GTAATATTAC)2-3' at 250 uM by UV-vis spectrophotometric analysis; assay type: nucleic-acid assay
[12] = Binding affinity to 5'-d(GTCCGTCGGAC)-3'/5'-(GTCCGACGGAC)-3' DNA assessed as change in melting temperature at 1:1 DNA to compound molar ratio by spectrophotometric analysis
Nucleic Acid [13] = test: Induction of DNA intercalation using 5'-d(GCGCGCGC)2-3' at 250 uM by UV-vis spectrophotometric analysis; assay type: nucleic-acid assay
Nucleic Acid [14] = test: Induction of DNA intercalation using 5'-r(GUCCGCGGAC)2-3' at 250 uM by UV-vis spectrophotometric analysis; assay type: nucleic-acid assay
Nucleic Acid [15] = test: Induction of DNA intercalation using 5'-d(GTCCGCGGAC)2-3' at 250 uM by UV-vis spectrophotometric analysis; assay type: nucleic-acid assay
[16] = Binding affinity to 5'-d(ATATAGTATATA)-3'/5'-(TATATACTATAT)-3' DNA assessed as change in melting temperature at 1:1 DNA to compound molar ratio by spectrophotometric analysis
Nucleic Acid [17] = test: Induction of DNA intercalation using 5'-d(ATATAGTATATA)-3'/5'-(TATATACTATAT)-3' at 250 uM by UV-vis spectrophotometric analysis; assay type: nucleic-acid assay
[18] = Binding affinity to 5'-r(GCGCGCGC)2-3' DNA assessed as change in melting temperature at 1:1 DNA to compound molar ratio by spectrophotometric analysis
Nucleic Acid [19] = test: Induction of DNA intercalation using 5'-d(GTCCGCGGAC)2-3' at 1:0, 1:0.5, 1:1, 1:1.5, 1:2 DNA to compound molar ratio by CD spectroscopic analysis; assay type: nucleic-acid assay
Nucleic Acid [20] = test: Induction of DNA intercalation using 5'-d(CGATCG)2-3' by NMR analysis; assay type: nucleic-acid assay
Nucleic Acid [21] = test: Induction of DNA intercalation using 5'-d(CGATCG)2-3' at 1:0.5 DNA to compound molar ratio by NMR analysis; assay type: nucleic-acid assay

Row | Structure (SMILES) | ΔTm [1] | Activity (Nucleic Acid [2]) | Activity (Nucleic Acid [3]) | Activity (Nucleic Acid [4]) | ΔTm [5] | Activity (Nucleic Acid [6]) | ΔTm [7] | ΔTm [8] | ΔTm [9] | ΔTm [10] | Activity (Nucleic Acid [11]) | ΔTm [12] | Activity (Nucleic Acid [13]) | Activity (Nucleic Acid [14]) | Activity (Nucleic Acid [15]) | ΔTm [16] | Activity (Nucleic Acid [17]) | ΔTm [18] | also measured
1 | CN(C)CCN1C(=O)c2cccc3cc(Br)cc(c23)C1=O | 0 °C | Active | Active | Active | 2 °C | Active | 13.9 °C | 9.5 °C | 6 °C | 6.3 °C | Active | 0 °C | Active | Active | Active | 10.8 °C | Active | 1.6 °C | –
2 | CN(C)CCN1C(=O)c2cccc3cccc(c23)C1=O | 0 °C | Active | Active | Active | 0 °C | Active | 19.4 °C | 8.7 °C | 5.6 °C | 8.1 °C | Active | 0 °C | Active | Active | Active | 11.6 °C | Active | 0 °C | –
3 | CN(C)CCN1C(=O)c2cccc3cc([N+](=O)[O-])cc(c23)C1=O | 0 °C | Active | Active | Active | 2.2 °C | Active | 17.2 °C | 14.3 °C | 13.3 °C | 12.6 °C | Active | 5 °C | Active | Active | Active | 11.7 °C | Active | 1.8 °C | Activity (Nucleic Acid [19]): Active; Activity (Nucleic Acid [20]): Active
4 | CC(=O)Nc1cc2c3c(cccc3c1)C(=O)N(CCN(C)C)C2=O | 0 °C | Active | Active | Active | 0 °C | Active | 8.8 °C | 4.6 °C | 5.6 °C | 8.6 °C | Active | 0 °C | Active | Active | Active | 4.7 °C | Active | 0 °C | –
5 | CC(C)Nc1cc2c3c(cccc3c1)C(=O)N(CCN(C)C)C2=O | 0 °C | Active | Active | Active | 1.1 °C | Active | 16.4 °C | 7.9 °C | 0 °C | 7.3 °C | Active | 2.1 °C | Active | Active | Active | 0 °C | Active | 0 °C | –
6 | CN(C)CCN1C(=O)c2cccc3cc(-c4ccccc4)cc(c23)C1=O | 0 °C | Active | Active | Active | 0 °C | Active | 1.3 °C | 0 °C | 0 °C | 0 °C | Active | 0 °C | Active | Active | Active | 5.8 °C | Active | 0 °C | –

Further lines, with some results ahead:

Row | ΔTm [1] | Activity (Nucleic Acid [2]) | Activity (Nucleic Acid [3]) | Activity (Nucleic Acid [4]) | ΔTm [5] | Activity (Nucleic Acid [6]) | ΔTm [7] | ΔTm [8] | ΔTm [9] | ΔTm [10] | Activity (Nucleic Acid [11]) | ΔTm [12] | Activity (Nucleic Acid [13]) | Activity (Nucleic Acid [14]) | Activity (Nucleic Acid [15]) | ΔTm [16] | Activity (Nucleic Acid [17]) | ΔTm [18] | Structure (SMILES) | also measured
7 | 0 °C | Active | Active | Active | 0 °C | Active | 8.4 °C | 2.5 °C | 0 °C | 4.4 °C | Active | 0 °C | Active | Active | Active | 1.7 °C | Active | 0 °C | CN(C)CCN1C(=O)c2cccc3cc(I)cc(c23)C1=O | –
8 | 0 °C | Active | Active | Active | 0 °C | Active | 14.7 °C | 1.6 °C | 1.6 °C | 4.4 °C | Active | 2.2 °C | Active | Active | Active | 5.7 °C | Active | 0 °C | CN(C)CCN1C(=O)c2cccc3cc(O)cc(c23)C1=O | –
9 | 0 °C | Active | Active | Active | 0 °C | Active | 5.1 °C | 3.2 °C | 2.7 °C | 0 °C | Active | 0 °C | Active | Active | Active | 0 °C | Active | 0 °C | Cc1cc2c3c(cccc3c1)C(=O)N(CCN(C)C)C2=O | –
10 | 0 °C | Active | Active | Active | 1 °C | Active | 14.6 °C | 16.9 °C | 5.1 °C | 11.6 °C | Active | 0 °C | Active | Active | Active | 10.1 °C | Active | 1.1 °C | CN(C)CCN1C(=O)c2cccc3cc(N)cc(c23)C1=O | Activity (Nucleic Acid [21]): Active
11 | 0 °C | Active | Active | Active | 0 °C | Active | 7 °C | 6.3 °C | 1.1 °C | 4.5 °C | Active | 0 °C | Active | Active | Active | 0 °C | Active | 0 °C | CN(C)CCN1C(=O)c2cccc3cc(Cl)cc(c23)C1=O | –
